Legend:
[1] = test system: FXR; test: Bile salt homeostasis/proliferation related transcript levels in liver after PVE (Example 5a); type: in vivo, rabbit
Experimental: Adult female rabbits received vehicle or the FXR agonist obeticholic acid (OCA; 10 mg/kg, daily oral gavage) for 7 days prior to, and after embolization (day 0) of the cranial liver lobes. Effectiveness of PVE was confirmed by portography, and caudal liver volume (CLV) was analyzed by CT-volumetric analysis at days −7, −1, +3 and +7. Rabbits were sacrificed at day +3 and +7 (n=5-6 per group).

[2] = test system: New Zealand White rabbits; test: Portal vein embolization (PVE) in rabbits, 6-ECDCA vs vehicle (Example 4); type: in vivo, rabbit
Text: Female New Zealand White rabbits with a mean weight of 3.0±0.5 kg were acclimatized for 1 week under standardized laboratory conditions in a temperature-controlled room. The animals were individually housed, had free access to standard laboratory food and water, and were subjected to a 12-h light/dark cycle per day. The rabbits were divided into two groups receiving 6-ECDCA and two control groups receiving vehicle. Specifically, the PVE study rabbits were divided into following groups: • Group 1: Normal diet (6-ECDCA 10 mg/kg/day, oral gavage) (N=6), animals sacrificed at day 7, post PVE. • Group 2: Normal diet (Vehicle) (N=6), animals sacrificed at day 7 post PVE. • Group 3: Normal diet (6-ECDCA 10 mg/kg/day, oral gavage) (N=6), animals sacrificed at day 3, post PVE. • Group 4: Normal diet (Vehicle) (N=6), animals sacrificed at day 3, post PVE.
The rabbit liver consists of four liver lobes, three of which are positioned cranially, with the fourth located caudally. In the rabbit PVE model the cranial liver lobes, which account for approximately 80% of the total liver volume, were embolized. The rabbit was placed in a supine position after subcutaneous injection of 0.03 mg/kg buprenorphine and 0.02 mg/kg enrofloxacin. Rabbits were given enrofloxacin 0.02 mg/kg subcutaneously once a day for 3d postoperatively. Animals were anesthetized by intramuscular injection of 25.0 mg/kg ketamine and 0.2 mg/kg dexmedetomidine. Isoflurane 1%-2% with O2/air (1:0.7 L/min) was used to maintain anesthesia. Heart rate and arterial oxygen saturation were measured by pulse oximetry continuously throughout the procedure.
To identify the individual portal branches, portography was performed. After passing the portal branch to the caudal liver lobe, a microcatheter was positioned into the main portal branch supplying the cranial liver lobes. Animals received an initial mixture of contrast (Visipaque) and 90-180 μm polyvinyl alcohol (PVA) particles, followed by injection of 300-500 μm PVA particles until cessation of flow and placement of three platinum coils (6 mm). Portography directly after PVE confirmed total occlusion of the cranial portal blood flow in the embolization groups. The hypertrophy and atrophy responses of the caudal and cranial lobes were measured using CT volumetry before embolization and on day 3 and 7 post-embolization.
Multiphasic CT scans were performed using a 64-slice CT scan (Brilliance 64-channel; Philips, Eindhoven, The Netherlands). Rabbits were placed in supine position. After a blank series, a contrast enhanced scan was performed 15 s (arterial phase), 30 s (portal phase), and 45 s (venous phase) after contrast injection (4 mL Visipaque), followed by 3 mL NaCl. 3D-reconstructions of the liver were made using reconstructed 2 mm axial slices. The total liver and the cranial and caudal liver lobes were manually delineated and total liver volume (TLV) and the caudal liver volume (CLV) and cranial liver volume (CrLV) were calculated.
The following measurements were carried out: (1) body weight, (2) computed tomography of the embolized and non-embolized lobes, (3) expression of cell cycle-related and bile salt homeostasis-related transcripts in the liver, (4) expression of ileal transcripts, and (5) serum total bile salt concentration.
Serum bile salt concentration was determined at baseline, at 3 h, and at days 1, 3, and 7 post PVE. […]

CC[C@H]1[C@@H](O)[C@@H]2[C@H](CC[C@]3(C)[C@@H]([C@H](C)CCC(=O)O)CC[C@@H]23)[C@@]2(C)CC[C@@H](O)C[C@@H]12 [Compound 1, 3α,7α-dihydroxy-6α-ethyl-5β-cholanic acid]
expression of Cdc25b vs controls ([1]; atrophic liver segments): +1.1 fold | expression of Cdc25b vs controls ([1]; hypertrophic liver segments): +1.6 fold | expression of Cyp7a1 vs controls ([1]; hypertrophied segments, day +3): −7.1 fold | expression of Slc51b vs controls ([1]; hypertrophied segments, day +3): +6.5 fold | increase in caudal liver volume (CLV) ([2]; CT, days 3 and 7 post embolization, FIG. 3): accelerates hypertrophy of the non-embolized lobe | concentration of serum bile salts vs control ([2]; day 1 post PVE, FIG. 8): relatively lower | body weight, difference vs vehicle ([2]; each day of the study, FIG. 2): not statistically significant | decrease in cranial liver lobe volume (CrLV) ([2]; embolized lobe, FIG. 5): does not affect atrophy of the embolized lobe | liver regeneration and liver mass ([2]; rabbit PVE model, 10 mg/kg/day oral gavage): accelerates liver regeneration and increases liver mass

— patent US10548906B2, “Methods of promoting hepatic regeneration” (Intercept Pharmaceuticals, Inc., priority 2015, dated 2020)
